Reference: patent publication US10112978B2, “Peptide and use thereof” (OSAKA UNIVERSITY, priority 2014, dated 2018)

What was measured:
[1] = system: PMA-differentiated THP-1 cells; assay: Cytokine and chemokine production in PMA-differentiated THP-1 cells (ELISA); assay type: cell-based, human
Method: THP-1 cells were suspended at 5×10^5 cells/mL in RPMI1640 medium containing 50 ng/mL PMA (phorbol 12-myristate 13-acetate) and 10% FBS, and seeded at 5×10^5 cells/well on a 24-well plate. The cells were cultured in a CO2 incubator for 2 days for differentiation into macrophages. After the 2-day culture, the medium was removed, an OSK-1 solution in RPMI1640 medium containing 10% FBS was added to the wells, and overnight culture was performed. Sixteen hours after the addition, the culture supernatant was harvested, and the cytokine concentrations in the supernatant were measured by ELISA.
The experiment in this example was performed in the same manner as in Example 3, and the IL-1β, IL-18, TNFα, IL-6, RANTES, MIP-1α and MIP-1β concentrations in the culture supernatant were measured.

inflammasomes = assay: Inflammasome activation: IL-1β and TNFα production in NLRP3-knockdown and control siRNA THP-1 cells; assay type: cell-based, human; details: OSK-1 10 μg/mL, 16 hours
Method: THP-1 cells were transfected with a siRNA against the inflammasome component NLRP3 (NOD-like receptor family, pyrin domain containing 3) (final concentration: 100 nM, Hs_CIAS 1_6 and Hs_CIAS 1_9, manufactured by QIAGEN) or a control siRNA using a transfection reagent (6 μL/well, HiPerFect Transfection Reagent, manufactured by QIAGEN). After overnight culture, the expression level of NLRP3 was determined by western blotting.
Each type of the THP-1 cells was suspended at 1×10^6 cells/mL in RPMI1640 medium containing 1 μg/mL LPS and 10% FBS, and incubated in a CO2 incubator for 3 hours for cell priming. The cell suspension was centrifugated, the cells were resuspended at 1×10^6 cells/mL in RPMI1640 medium containing 10% FBS, and the cell suspension was added to a 24-well plate at 500 μL/well. An OSK-1 solution was prepared at a 2-fold higher concentration than the final concentration in RPMI1640 medium containing 10% FBS and added to the plate at 500 μL/well. After 16 hours, the culture supernatant was harvested, and the IL-1β and TNFα concentrations in the supernatant were measured by ELISA.

beagles = assay: Adjuvant effect in dogs (anti-Ang II antibody titer after Ang II-KLH vaccine); assay type: in vivo; details: Ang II-KLH 25 μg/animal + OSK-1 500 μg/animal intracutaneously twice at a 2-week interval
Method: The adjuvant effect of OSK-1 was compared with that of the conventional Freund's adjuvant in dogs. Ang II-KLH (angiotensin II-keyhole limpet hemocyanin) as a vaccine (25 μg/animal) and OSK-1 (500 μg/animal) or Freund's adjuvant (250 μL/animal) as an adjuvant were intracutaneously administered to beagles twice at a 2-week interval (2 animals per group). For the Freund's adjuvant group, complete Freund's adjuvant was used at the first administration, and incomplete Freund's adjuvant was used at the second administration. Blood was drawn before the first administration and 2 and 4 weeks after the first administration, and the anti-Ang II antibody titer was measured.
The serum separated from the blood was serially diluted in 5% skim milk/PBS, and the diluted sera were added to an Ang II-BSA-coated 96-well ELISA plate. The plate was allowed to stand at 4° C. overnight. The wells were washed with PBS-T, an HRP-labeled anti-mouse IgG antibody diluted in 5% skim milk/PBS was added to the wells. The plate was incubated with agitation at room temperature for 3 hours. The wells were washed with PBS-T, and a TMB solution was added to the wells. The plate was allowed to stand under protection from light for 30 minutes, and 0.5 N H2SO4 was added to the wells to stop the reaction. The absorbance at 450 nm was measured and used for antibody titer comparison.

[2] = system: mouse bone marrow-derived dendritic cells; assay: Cytokine production in mouse bone marrow-derived dendritic cells (ELISA); assay type: cell-based; details: about 16 hours
Method: Bone marrow cells were harvested from the thigh bone of a C57BL/6 mouse, seeded in RPMI1640 medium containing […] GM-CSF (granulocyte macrophage colony-stimulating factor) and 10% FBS, and cultured for 3 days. After the 3-day culture, a fresh medium was added and culture was continued for additional 4 days. The cells not adherent on the culture plate were harvested and regarded as bone marrow-derived dendritic cells. The cells were suspended at 2×10^6 cells/mL in RPMI1640 medium containing 10% FBS, and the cell suspension was added to a 24-well plate at 500 μL/well. An OSK-1 solution was prepared at a 2-fold higher concentration than the final concentration in RPMI1640 medium containing 10% FBS and added to the plate at 500 μL/well. After about 16 hours, the culture supernatant was harvested, and the cytokine concentrations in the supernatant were measured by ELISA.

NFκB = assay: Activation of NFκB in THP-1 cells (TNFα production with or without NFκB inhibitors); assay type: cell-based, human; details: for production of TNFα: OSK-1 100 ng/mL
Method: THP-1 cells were diluted to 5×10^5 cells in 500 μL of RPMI1640 medium containing 10% FBS, and the cell suspension was added to a 24-well plate at 500 μL/well. QNZ (Enzo, final concentration: 10 μM) in RPMI1640 medium containing 10% FBS, BAY11-7082 (Enzo, final concentration: 10 μM) in RPMI1640 medium containing 10% FBS and RPMI1640 medium containing 10% FBS were added to the plate, and the cells were cultured for 2.5 hours. OSK-1 was added to the wells at a final concentration of 100 ng/mL, and the cells were cultured for 2 hours. After that, the culture supernatant was harvested, and the TNFα concentration in the supernatant was measured by ELISA.

C57BL/6 mice = assay: Induction of WT1-specific immunity in mice (ELISpot of splenocytes); assay type: in vivo; details: group (3): WT1 peptide 15 μg/mouse + OSK-1 100 μg/mouse, once a week for 4 weeks
Method: The OSK-1 peptide and a WT1 peptide were conjugated via ε-Acp as a spacer to form an “OSK-1-WT1 conjugate vaccine”. The OSK-1-WT1 conjugate vaccine was evaluated for the ability to induce WT1-specific immunity in mice. Mice were divided into the following 5 groups (3 animals per group): (1) physiological saline, (2) WT1 peptide (15 μg/mouse)+Incomplete Freund's Adjuvant (IFA, SIGMA; Cat#F5506, 50 μL/mouse), (3) WT1 peptide (15 μg/mouse)+OSK-1 (100 μg/mouse), (4) OSK-1-WT1 conjugate vaccine (50 μg/mouse), and (5) OSK-1-WT1 conjugate vaccine (300 μg/mouse). In each group, the test substance was administered to C57BL/6 mice once a week for 4 weeks. At 2 weeks after the 4th administration, the spleen was excised from each immunized mouse, and the ELISpot assay was performed. The specific procedure is as follows. Splenocytes were prepared from the excised spleen and seeded on a filter plate coated with an anti-IL-4 antibody or an anti-IFNγ antibody. The WT1 peptide or the OSK-1-WT1 peptide was added to the wells, and the splenocytes were cultured for 3 days. After that, each well of the filter plate was stained and the spots of IL-4- or IFNγ-producing cells was counted.

For “ELKLIFLHRLKRLRKRLKRK (Ac-ELKLIFLHRLKRLRKRLKRK-NH2) [OSK-1]”, the “production of the chemokines and cytokines (IL-1β, IL-18, TNFα, IL-6, RANTES, MIP-1α and MIP-1β)” value ([1]; Example 11, ELISA) was “induced the production of the chemokines and cytokines in the PMA-differentiated THP-1 cells in an OSK-1 concentration dependent manner”, the “production of the cytokines (IL-1β, IL-18, TNFα and IL-6 concentrations in the culture supernatant)” value ([1]; OSK-1 at 30 μg/mL, 16 hours, ELISA) was “strongly induced the production of the cytokines” and the “production of IL-1β” value (inflammasomes; LPS-primed NLRP3-knockdown THP-1 cells) was “the induction of IL-1β production by OSK-1 was inhibited”. For the same sequence, the “production of TNFα” value (inflammasomes; NLRP3-knockdown and control siRNA THP-1 cells) was “induced by OSK-1 regardless of whether NLRP3 expression was knocked down or not”, the “anti-Ang II antibody titer” value (beagles) was “increase in the anti-Ang II antibody titer was observed” and the “production of the cytokines (IL-1β, IFNγ, TNFα, IL-6 and IL-12p70)” value [2] was “induced the production of the cytokines in the mouse bone marrow-derived dendritic cells in an OSK-1 concentration dependent manner”. The “production of TNFα” value (NFκB; 2 hours) was “induced the production of TNFα”, the “production of TNFα” value (NFκB; in the presence of NFκB inhibitor BAY11-7082 10 μM) was “inhibited in the presence of the NFκB inhibitor QNZ or BAY11-7082” and the “production of TNFα” value (NFκB; in the presence of NFκB inhibitor QNZ 10 μM) was “inhibited in the presence of the NFκB inhibitor QNZ”. For the same sequence, the “activating NFκB” value (NFκB; concluded from TNFα production with and without NFκB inhibitors) was “effective for activating NFκB” and the “IFNγ-producing cells in response to stimulation with the WT1 peptide (ELISpot)” value (C57BL/6 mice) was “more cells produced IFNγ in response to the stimulation with the WT1 peptide”.
